These results are taken from ChEMBL document CHEMBL1201862, “PubChem BioAssay data set” (2004).

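Method: 48-hour compound exposure of cells in 96-well plates, five concentrations, linear interpolation of endpoints. GI50: concentration for 50% inhibition of growth.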 Active and inactive are the calls of the source. Rule as the data show it: active = GI50 up to about 1.1 µM and inactive = higher.

What all share (test): inhibition of tumour cell growth, NCI panel, 48 h
Assay [1] relates to HL-60.
For assay [2], the system named is M14.
The subject of assay [3] is RXF 393.
For assay [4], the system named is HOP-92.
In assay [5] the test system is CCRF-CEM.
In assay [6] the test system is UO-31.
Assay [7] has as its system U-251.
Assay [8] concerns TK-10.
Assay [9] relates to NCI-H522.
In assay [10] the test system is SNB-19.
Assay [11] has as its system OVCAR-3.
Assay [12] has as its system CAKI-1.
Assay [13] has as its system SNB-75.
Assay [14] has as its system SK-MEL-28.
The test system of assay [15] is SK-MEL-5.
Assay [16] has as its system UACC-257.
Assay [17] concerns MCF7.
For assay [18], the system named is MDA-MB-231.
Assay [19] relates to MDA-N.
Assay [20] has as its system T47D.

On to `CC(C(=O)c1ccc(O)cc1)C1(O)C(=O)Nc2c(Cl)cc(Cl)cc21` (stereo not drawn), for which the GI50 in [1] is 20.9 µM (inactive); in assay [2] it was 26.7 µM (inactive); in [3], 24.6 µM (inactive); in assay [4], > 100 µM (inactive); in assay [5], 26.6 µM (inactive); in assay [6], > 56.6 µM (inactive). Besides, the GI50 in assay [7] is > 78 µM (inactive); in [8], > 100 µM (inactive); in [9] it was 23.1 µM (inactive); in assay [10], > 77.6 µM (inactive); in [11], 31.6 µM (inactive); in assay [12] it was > 100 µM (inactive). The GI50 in assay [13] was 47.6 µM (inactive); in [14] it was 31.1 µM (inactive); in [15], 17.1 µM (inactive); in assay [16], 17.5 µM (inactive).
On to `Cc1ccc(-c2c(C#N)c(-c3ccc([N+](=O)[O-])cc3)c(C#N)c(=O)n2NS(=O)(=O)c2ccc(C)cc2)cc1`, for which the GI50 in [1] is 31.3 µM (inactive); in [2], 54.1 µM (inactive); in assay [3] it was 52.2 µM (inactive); in [4] it was 23.5 µM (inactive); in [5], 25.9 µM (inactive); in [17], 24.9 µM (inactive). For the same compound, the GI50 is 44.8 µM (inactive) in [7]; 51.3 µM (inactive) in assay [8]; 61.9 µM (inactive) in assay [18]; 75.9 µM (inactive) in assay [19]; 31.8 µM (inactive) in assay [9]; 56.6 µM (inactive) in assay [10]. Moreover, the GI50 in assay [11] is 21.2 µM (inactive); in [12] it was 50.6 µM (inactive); in assay [13] it was 74.5 µM (inactive); in [14], 52.8 µM (inactive); in assay [15] it was 19.8 µM (inactive); in [16], > 100 µM (inactive).
For the compound `CCOC(=O)C=C1CCC2(CC1)OCCO2`, the GI50 in assay [1], in assay [2], in assay [3], in assay [4], in assay [5] and in assay [6] was > 100 µM (inactive) throughout. Moreover, the GI50 in [7], in [8], in assay [9], in assay [10], in [11] and in assay [12] was > 100 µM (inactive) in each case. Also, the GI50 in [13], in assay [14], in assay [15] and in [16] was > 100 µM (inactive) each time.
For the compound `C#CCOCn1cnc2c(Sc3c([N+](=O)[O-])ncn3C)ncnc21`, the GI50 in assay [1] is > 100 µM (inactive); in [2] it was > 100 µM (inactive); in [3], > 100 µM (inactive); in assay [4], > 100 µM (inactive); in assay [5] it was 97.7 µM (inactive); in assay [6] it was 91.8 µM (inactive). Besides, the GI50 in [7] is > 100 µM (inactive); in [8], > 100 µM (inactive); in [9], 48.3 µM (inactive); in [10], > 100 µM (inactive); in [11], > 100 µM (inactive); in assay [12] it was > 100 µM (inactive). In addition, the GI50 in [13] was 22.8 µM (inactive); in assay [14], > 100 µM (inactive); in assay [15], > 100 µM (inactive); in assay [16], > 100 µM (inactive).
`CS(=O)(=O)OCCN1CCC2(CC1)SSC1(CCN(CCOS(C)(=O)=O)CC1)S2`: the GI50 in [1] is 24.3 µM (inactive); in assay [2], > 100 µM (inactive); in assay [17] it was 17.1 µM (inactive); in assay [6] it was 45 µM (inactive); in assay [7], 72.6 µM (inactive); in [8], 15.7 µM (inactive). Moreover, the GI50 in [18] was > 100 µM (inactive); in [19], 75.5 µM (inactive); in assay [10] it was 69.3 µM (inactive); in assay [11] it was 29.2 µM (inactive); in assay [12], 21.8 µM (inactive); in [13], 99.1 µM (inactive). Also, the GI50 in assay [14] is > 100 µM (inactive); in assay [15] it was 16.1 µM (inactive); in [16] it was > 100 µM (inactive).
For the compound `CC12OC3CC(O1)C1(C=O)C4CCC5(C)C(c6ccc(=O)oc6)CCC5(O)C4CCC1(C3)O2` (stereo not drawn), the GI50 in [1] is 0.189 µM (active); in [2] it was 0.242 µM (active); in assay [3] it was 0.104 µM (active); in assay [4], 0.339 µM (active); in [5], 0.0735 µM (active); in assay [6], 0.304 µM (active). In addition, the GI50 in assay [7] is 0.293 µM (active); in assay [8], 0.143 µM (active); in assay [9], 0.0479 µM (active); in [10], 0.573 µM (active); in assay [11], 0.13 µM (active); in assay [12] it was 0.207 µM (active). Moreover, the GI50 in [13] is 0.252 µM (active); in assay [14] it was 0.491 µM (active); in assay [15], 0.0895 µM (active); in assay [16], 0.234 µM (active).
Take `COC(=O)C(=C\Sc1ccccc1)/C=C/C(=O)OC(C)(C)C`: the GI50 is 1.48 µM (inactive) in assay [1]; 7.78 µM (inactive) in [2]; 2.69 µM (inactive) in assay [3]; 4.4 µM (inactive) in assay [4]; 1.89 µM (inactive) in assay [5]; 16 µM (inactive) in assay [6]. The GI50 was 14.5 µM (inactive) in assay [7]; 17.1 µM (inactive) in assay [8]; 5.07 µM (inactive) in [9]; 4.08 µM (inactive) in assay [10]; 5.25 µM (inactive) in assay [11]; 3.87 µM (inactive) in [12]. Further, the GI50 in assay [13] was 14 µM (inactive); in [14], 13.4 µM (inactive); in assay [15], 15 µM (inactive); in [16] it was 13.5 µM (inactive).
In the case of `CCC1(c2ccc(N3C(=O)c4cccc5cc([N+](=O)[O-])cc(c45)C3=O)cc2)CCC(=O)NC1=O` (stereo not drawn), the GI50 was 61.5 µM (inactive) in assay [2]; 7.14 µM (inactive) in assay [3]; 2.16 µM (inactive) in assay [4]; 7.74 µM (inactive) in assay [5]; 29.9 µM (inactive) in assay [17]; 4.44 µM (inactive) in assay [6]. The GI50 in [7] is 9.84 µM (inactive); in assay [8], 33 µM (inactive); in [18] it was 5.16 µM (inactive); in [20], 24.4 µM (inactive); in assay [9], 1.81 µM (inactive); in assay [10], 35 µM (inactive). In addition, the GI50 in assay [11] was 20.7 µM (inactive); in assay [12], 14.2 µM (inactive); in assay [13], 7.05 µM (inactive); in [14], 22.2 µM (inactive); in assay [15], 90.4 µM (inactive); in assay [16] it was 47.6 µM (inactive).
For `C[C@H]1O[C@@H](c2c(O)ccc3ccccc23)C[C@@H](N(C)C)C1O` (stereo partly drawn), the GI50 in assay [1] is 85.1 µM (inactive); in assay [2], 78.5 µM (inactive); in assay [3], 20.7 µM (inactive); in [4] it was 24.2 µM (inactive); in assay [5] it was > 100 µM (inactive); in assay [17], > 100 µM (inactive). The GI50 in [6] was 41.4 µM (inactive); in assay [7], > 100 µM (inactive); in [8], 41.3 µM (inactive); in [18] it was > 100 µM (inactive); in [19] it was > 100 µM (inactive); in assay [9], > 100 µM (inactive). For the same compound, the GI50 in [10] was > 100 µM (inactive); in assay [11], > 100 µM (inactive); in assay [13] it was 43.8 µM (inactive); in assay [14] it was 97.5 µM (inactive); in [15] it was 40.4 µM (inactive); in assay [16], 26.5 µM (inactive).
Regarding `CC(=O)OC1C2CCC1C1C2N=NN1c1ccc([N+](=O)[O-])cc1` (stereo not drawn), the GI50 in [1], in [2], in assay [4], in assay [5], in assay [17] and in assay [6] was > 100 µM (inactive) throughout. Further, the GI50 in assay [7] was > 100 µM (inactive); in assay [8] it was > 100 µM (inactive); in assay [18], > 100 µM (inactive); in assay [20], > 100 µM (inactive); in assay [9], 64.4 µM (inactive); in [10], > 100 µM (inactive). Moreover, the GI50 in assay [11], in assay [13], in assay [14], in [15] and in [16] was > 100 µM (inactive) throughout.
Take `Oc1ccc(/C=N/c2nccs2)c(O)c1`: the GI50 is > 100 µM (inactive) in assay [2]; > 100 µM (inactive) in assay [3]; 64 µM (inactive) in assay [17]; > 100 µM (inactive) in assay [6]; > 100 µM (inactive) in [8]; > 100 µM (inactive) in assay [18]. Moreover, the GI50 in assay [19], in [9], in assay [10], in assay [11], in assay [12] and in [13] was > 100 µM (inactive) throughout. Moreover, the GI50 in [15] and in assay [16] was > 100 µM (inactive) each time.
For the compound `COC(=O)[C@](NC(=O)OCc1ccccc1)([C@@H](C)[S+]([O-])c1ccc(C)cc1)C(F)(F)F` (stereo partly drawn), the GI50 in assay [1] was 17 µM (inactive); in assay [2], 48.2 µM (inactive); in [3], 20 µM (inactive); in assay [4], 26.9 µM (inactive); in assay [5] it was 22.8 µM (inactive); in assay [6] it was 27.7 µM (inactive). The GI50 in assay [7] was 36.8 µM (inactive); in assay [8] it was 21.5 µM (inactive); in [18], 59.6 µM (inactive); in assay [20], 35.8 µM (inactive); in [9], 24.6 µM (inactive); in assay [10], 43 µM (inactive). For the same compound, the GI50 is 43.7 µM (inactive) in assay [11]; 41 µM (inactive) in [12]; 36.4 µM (inactive) in assay [13]; 62.7 µM (inactive) in [14]; 16.4 µM (inactive) in [15]; 24.8 µM (inactive) in [16].
